Assay results taken from US20240287080A1 (IDEAYA Biosciences Inc., priority 2021, published 2024).

Biological target: T1, Pol theta (1-899) (Homo sapiens, UniProt O75417)
T1 construct: Pol theta (1-899) (5 nM) in assay buffer
Assay: Pol theta ATPase activity, NADH oxidation-coupled enzymatic assay (ATPase NADH coupling: Standard Screening: hPolQ)
Format: biochemical
Conditions: Pol theta (1-899) 5 nM
Method in brief: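 Rates of ATP hydrolysis taken from 60-min A340 traces of NADH oxidation via PK/LDH coupling, then fit four-parameter for IC50, Hill slope and max inhibition. Enzyme (5 nM, 1-899) and compounds preincubated 15 min before ATP 100 μM and 50-thymine ssDNA 300 nM (stock, equal volume added).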

[1] = NADH oxidation-coupled ATPase assay, compounds of Table 3

T1 sequence (O75417 1-899): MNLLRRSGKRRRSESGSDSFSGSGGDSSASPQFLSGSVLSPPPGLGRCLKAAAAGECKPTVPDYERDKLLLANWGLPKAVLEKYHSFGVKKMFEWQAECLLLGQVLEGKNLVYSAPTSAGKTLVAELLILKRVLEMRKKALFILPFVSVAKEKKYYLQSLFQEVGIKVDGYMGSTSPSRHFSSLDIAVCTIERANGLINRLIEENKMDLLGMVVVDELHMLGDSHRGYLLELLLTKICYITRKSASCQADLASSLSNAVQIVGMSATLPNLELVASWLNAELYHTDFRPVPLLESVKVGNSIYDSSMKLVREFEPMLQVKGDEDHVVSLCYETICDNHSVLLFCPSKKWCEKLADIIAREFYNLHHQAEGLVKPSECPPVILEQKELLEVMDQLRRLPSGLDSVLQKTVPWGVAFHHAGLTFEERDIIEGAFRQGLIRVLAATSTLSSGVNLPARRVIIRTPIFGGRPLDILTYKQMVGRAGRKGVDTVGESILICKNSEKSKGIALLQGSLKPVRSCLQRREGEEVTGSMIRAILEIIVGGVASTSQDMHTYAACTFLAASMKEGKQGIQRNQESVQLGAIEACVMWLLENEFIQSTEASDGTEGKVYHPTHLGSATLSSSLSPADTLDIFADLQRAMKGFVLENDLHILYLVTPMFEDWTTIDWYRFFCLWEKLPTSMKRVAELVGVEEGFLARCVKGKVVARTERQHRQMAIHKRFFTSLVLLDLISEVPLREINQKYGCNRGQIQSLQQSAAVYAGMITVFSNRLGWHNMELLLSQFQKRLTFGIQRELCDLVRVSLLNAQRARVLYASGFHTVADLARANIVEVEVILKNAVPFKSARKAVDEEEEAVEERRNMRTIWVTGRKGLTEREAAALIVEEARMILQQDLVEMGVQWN

IC50 (Table 5, ATP, dT50 ssDNA)	IC50 [1]	Structure (SMILES)	also measured
–	≤ 200 nM	Cc1cc(-c2cc(Cl)ncc2OC(F)F)c(C(=O)Nc2nnc(O[C@@H]3CCC[C@@H](O)C3)s2)cn1 (single isomer, unassigned) [Example 251]	–
–	≤ 200 nM	COc1cnc(Cl)cc1-c1cc(C)ncc1C(=O)Nc1nnc(O[C@@H]2CCCN([C@@H]3CCOC3)C2)s1 [Example 264, 2′-chloro-5′-methoxy-6-methyl-N-(5-(((R)-1-((R)-tetrahydrofuran-3-yl)piperidin-3-yl)oxy)-1,3,4-thiadiazol-2-yl)-[4,4′-bipyridine]-3-carboxamide]	–
≤ 200 nM	–	COc1cnc(Br)cc1-c1cc(C)ncc1C(=O)Nc1nnc(OC2COC2)s1 [Example 188, 2′-bromo-5′-methoxy-6-methyl-N-(5-(oxetan-3-yloxy)-1,3,4-thiadiazol-2-yl)-(4,4′-bipyridine)-3-carboxamide]	–
≤ 200 nM	–	COc1cnc(Cl)cc1-c1cc(C)ncc1C(=O)Nc1nnc(O[C@H]2CC[C@@H]2O)s1 (single isomer, unassigned) [Example 119]	–
≤ 200 nM	–	COc1cnc(C)c(F)c1-c1cc(C)ncc1C(=O)Nc1nnc(OC2COC2)s1 [Example 204]	–
500 to 1000 nM	–	COc1nnc(NC(=O)c2cnc(OC3CC3)cc2-c2cc(Cl)ncc2OC)s1 [Example 196, 2′-chloro-6-cyclopropoxy-5′-methoxy-N-(5-methoxy-1,3,4-thiadiazol-2-yl)-(4,4′-bipyridine)-3-carboxamide]	–
–	≤ 200 nM	COc1cnc(C)c(F)c1-c1cc(C)ncc1C(=O)Nc1nnc(O[C@H]2CO[C@H]3OCC[C@H]32)s1 [Example 243, 3′-fluoro-N-(5-(((3R,3aS,6aR)-hexahydrofuro[2,3-b]furan-3-yl)oxy)-1,3,4-thiadiazol-2-yl)-5′-methoxy-2′,6-dimethyl-[4,4′-bipyridine]-3-carboxamide]	–
≤ 200 nM	–	Cc1cc(-c2cc(Cl)ncc2OC(F)F)c(C(=O)Nc2nnc(O[C@H]3CC[C@H](O)CC3)s2)cn1 [Example 203, 2′-chloro-5′-(difluoromethoxy)-N-(5-(((1r,4r)-4-hydroxycyclohexyl)oxy)-1,3,4-thiadiazol-2-yl)-6-methyl-(4,4′-bipyridine)-3-carboxamide]	–
–	200 to 500 nM	COc1nnc(NC(=O)c2nnc(C)cc2-c2cc(Cl)ncc2OC)s1 [Example 294, 4-(2-chloro-5-methoxypyridin-4-yl)-N-(5-methoxy-1,3,4-thiadiazol-2-yl)-6-methylpyridazine-3-carboxamide]	–
≤ 200 nM	–	COc1cnc(Cl)cc1-c1cc(C)ncc1C(=O)Nc1nnc(O[C@H]2COCC2(F)F)s1 (single isomer, unassigned) [Example 128]	–
≤ 200 nM	–	COc1cnc(C)c(F)c1-c1cc(C)ncc1C(=O)Nc1nnc(O[C@@H]2CCOC2)s1 [Example 206]	–
200 to 500 nM	–	COc1cnc(Cl)cc1-c1cc(C)ncc1C(=O)Nc1nnc(O[C@@H]2CCC[C@](C)(O)C2)s1 (single isomer, unassigned) [Example 180]	–

Further lines, the molecule ahead of its results:

Structure (SMILES)	IC50 (Table 5, ATP, dT50 ssDNA)	IC50 [1]	also measured
COc1cnc(Cl)cc1-c1cc(C)ncc1C(=O)Nc1nnc(O[C@H]2CC[C@H](O)C2)s1 [Example 45, 2′-chloro-N-(5-(((1s,3s)-3-hydroxycyclopentyl)oxy)-1,3,4-thiadiazol-2-yl)-5′-methoxy-6-methyl-(4,4′-bipyridine)-3-carboxamide]	–	–	IC50 (Table 4, ATP, dT50 ssDNA): ≤ 200 nM
COc1cnc(C)c(F)c1-c1cc(C)ncc1C(=O)Nc1nnc(O[C@H]2CC[C@@](C)(O)CC2)s1 (single isomer, unassigned) [Example 221, 3′-fluoro-N-(5-(((1s,4s)-4-hydroxy-4-methylcyclohexyl)oxy)-1,3,4-thiadiazol-2-yl)-5′-methoxy-2′,6-dimethyl-(4,4′-bipyridine)-3-carboxamide]	≤ 200 nM	–	–
COc1nnc(NC(=O)c2cnc(C)cc2-c2csc3cnccc23)s1 [Example 425, N-(5-methoxy-1,3,4-thiadiazol-2-yl)-6-methyl-4-{thieno[2,3-c]pyridin-3-yl}pyridine-3-carboxamide]	–	500 to 1000 nM	–
COc1nnc(NC(=O)c2cnc(C)cc2-c2cc(Cl)c(S(C)(=O)=O)cc2OC)s1 [Example 272, 4-(5-chloro-2-methoxy-4-(methylsulfonyl)phenyl)-N-(5-methoxy-1,3,4-thiadiazol-2-yl)-6-methylnicotinamide]	–	≤ 200 nM	–
COc1cnc(Cl)cc1-c1cc(C)ncc1C(=O)Nc1nnc(O[C@H]2CCO[C@H]2C)s1 (single isomer, unassigned) [Example 76, 2′-chloro-5′-methoxy-6-methyl-N-(5-(((2r,3r)-2-methyltetrahydrofuran-3-yl)oxy)-1,3,4-thiadiazol-2-yl)-(4,4′-bipyridine)-3-carboxamide]	–	–	IC50 (Table 4, ATP, dT50 ssDNA): ≤ 200 nM
COc1nnc(NC(=O)c2ccc([N+](=O)[O-])cc2-c2cc(Cl)ncc2OC)s1 [Example 300, 2-(2-chloro-5-methoxypyridin-4-yl)-N-(5-methoxy-1,3,4-thiadiazol-2-yl)-4-nitrobenzamide]	–	≤ 200 nM	–
COc1cnc(C)c(F)c1-c1cc(C)ncc1C(=O)Nc1nnc(O[C@@H]2C[C@@H]3C[C@H]2C[C@H]3O)s1 (single isomer, unassigned) [Example 254]	–	≤ 200 nM	–
COc1cnc(Cl)cc1-c1cc(C)ncc1C(=O)Nc1nnc(O[C@H]2CN3CCC2CC3)s1 [Example 306, (R)-2′-chloro-5′-methoxy-6-methyl-N-(5-(quinuclidin-3-yloxy)-1,3,4-thiadiazol-2-yl)-[4,4′-bipyridine]-3-carboxamide]	–	1000 to 10000 nM	–
COc1nnc(NC(=O)c2cnc(C)cc2-c2cccc(C(=O)NC3CC3)c2)s1 [Example 344, 4-[3(cyclopropylcarbamoyl)phenyl]-N-(5-methoxy-1,3,4-thiadiazol-2-yl)-6-methylpyridine-3carboxamide]	–	1000 to 10000 nM	–
COc1nnc(NC(=O)c2cnc(C)cc2-c2cccc(CC#N)c2)s1 [Example 477, 4-[3-(cyanomethyl)phenyl]-N-(5-methoxy-1,3,4-thiadiazol-2-yl)-6-methylpyridine-3-carboxamide]	–	1000 to 10000 nM	–
COc1nnc(NC(=O)c2cnc(C)cc2-c2ccc(-c3ccccc3)cc2)s1 [Example 370, 4-{[1,1′-biphenyl]-4-yl}-N-(5-methoxy-1,3,4-thiadiazol-2-yl)-6-methylpyridine-3-carboxamide]	–	1000 to 10000 nM	–
COc1nnc(NC(=O)c2cnc(C)cc2-c2cnc(C(F)(F)F)cc2C)s1 [Example 424, N-(5-methoxy-1,3,4-thiadiazol-2-yl)-4,6′-dimethyl-6-(trifluoromethyl)-[3,4′-bipyridine]-3′-carboxamide]	–	1000 to 10000 nM	–
COc1nnc(NC(=O)c2cnc(C)cc2-c2ccc3ncncc3c2)s1 [Example 470, N-(5-methoxy-1,3,4-thiadiazol-2-yl)-6-methyl-4-(quinazolin-6-yl)pyridine-3-carboxamide]	–	1000 to 10000 nM	–
COc1nnc(NC(=O)c2cnc(C)cc2-c2cc([C@@H](C)O)ncc2OC)s1 (single isomer, unassigned) [Example 69]	–	–	IC50 (Table 4, ATP, dT50 ssDNA): 1000 to 10000 nM
COc1cnc(Cl)cc1-c1cc(C)ncc1C(=O)Nc1nnc(O[C@H]2C[C@@H](OC)C2)s1 (single isomer, unassigned) [Example 132, 2′-chloro-5′-methoxy-N-(5-((1s,3s)-3-methoxycyclobutoxy)-1,3,4-thiadiazol-2-yl)-6-methyl-(4,4′-bipyridine)-3-carboxamide]	≤ 200 nM	–	–
COc1nnc(NC(=O)c2cnc(C)cc2-c2ccc(C)c(C)c2)s1 [Example 381, 4-(3,4-dimethylphenyl)-N-(5-methoxy-1,3,4-thiadiazol-2-yl)-6-methylpyridine-3-carboxamide]	–	1000 to 10000 nM	–
COc1nnc(NC(=O)c2cnc(C)cc2-c2c(F)cccc2Cl)s1 [Example 38, 4-(2-chloro-6-fluorophenyl)-N-(5-methoxy-1,3,4-thiadiazol-2-yl)-6-methylnicotinamide]	–	–	IC50 (Table 4, ATP, dT50 ssDNA): ≤ 200 nM
COc1nnc(NC(=O)c2cnc(C)cc2-c2ccc3c(c2)OCCN3C)s1 [Example 418, N-(5-methoxy-1,3,4-thiadiazol-2-yl)-6-methyl-4-(4-methyl-3,4-dihydro-2H-1,4-benzoxazin-7-yl)pyridine-3-carboxamide]	–	1000 to 10000 nM	–
COc1ccc(-c2cc(C)ncc2C(=O)Nc2nnc(OC)s2)c(OC)c1 [Example 462, 4-(2,4-dimethoxyphenyl)-N-(5-methoxy-1,3,4-thiadiazol-2-yl)-6-methylpyridine-3-carboxamide]	–	200 to 500 nM	–
COc1nnc(NC(=O)c2cnc(C)cc2-c2cccc(C)c2F)s1 [Example 414, 4-(2-fluoro-3-methylphenyl)-N-(5-methoxy-1,3,4-thiadiazol-2-yl)-6-methylpyridine-3-carboxamide]	–	≤ 200 nM	–
COc1nnc(NC(=O)c2cnc(C)cc2-c2cccc(S(=O)(=O)N(C)C)c2)s1 [Example 396, 4-[3-(dimethylsulfamoyl)phenyl]-N-(5-methoxy-1,3,4-thiadiazol-2-yl)-6-methylpyridine-3-carboxamide]	–	1000 to 10000 nM	–
COc1cnc(Cl)c(F)c1-c1cc(C)ncc1C(=O)Nc1nnc(O[C@H]2CC[C@@](C)(O)CC2)s1 (single isomer, unassigned) [Example 171, 2′-chloro-3′-fluoro-N-(5-(((1s,4s)-4-hydroxy-4-methylcyclohexyl)oxy)-1,3,4-thiadiazol-2-yl)-5′-methoxy-6-methyl-(4,4′-bipyridine)-3-carboxamide]	≤ 200 nM	–	–
CNC(=O)c1ccc(-c2cc(C)ncc2C(=O)Nc2nnc(OC)s2)cn1 [Example 479, N3′-(5-methoxy-1,3,4-thiadiazol-2-yl)-N6,6′-dimethyl-[3,4′-bipyridine]-3′,6-dicarboxamide]	–	1000 to 10000 nM	–
COc1cnc(Cl)c(F)c1-c1cc(C)ncc1C(=O)Nc1nnc(O[C@H]2CCC[C@@H](O)C2)s1 (single isomer, unassigned) [Example 154]	≤ 200 nM	–	–
COc1nnc(NC(=O)c2cnc(C)cc2-c2cccc(OCC#N)c2)s1 [Example 466, 4-[3-(cyanomethoxy)phenyl]-N-(5-methoxy-1,3,4-thiadiazol-2-yl)-6-methylpyridine-3-carboxamide]	–	1000 to 10000 nM	–
